Columns and labels:
Assay type in all cases: in vivo
Oriental cockroach [1] = test: Example 4: Oriental cockroach knockdown and mortality, bifenthrin and imidacloprid
Source text: (§1) The following examples further illustrate the present invention, but, of course, should not be construed as in any way limiting its scope. The examples set forth certain biological data illustrating the efficacy of the compositions of the present invention in controlling general household pests. Each example embodies a separate test wherein the pests were randomly selected from a population at a random age. As a result, from example to example, the ages of the pests can be very different. This age difference potentially translates to different baselines for each example. Therefore, data should only be compared within the example and not from example to example due to the differences in age of the pests from example to example. Unless otherwise indicated, all parts, percentages, and the like are by weight. The spray chamber used in the examples was approximately 76 inches tall, 73 inches long and 31 inches deep with an adjustable shelf (approximately 22 inches deep) and a movable spray nozzle. The spray chambers were calibrated to deliver a volume of approximately 1 gallon of liquid per 1000 square feet of area at about 14 pounds per square inch of pressure. A DeVilbiss hand held sprayer (Atomizer model 152) manufactured by DeVilbiss located in Glendale Heights, Ill. was used in testing house flies and mosquitoes. The DeVilbiss was used to apply approximately 3-5 milliliters of product at about 10 pounds per square inch.
(§2) The compositions of the present invention were tested for Oriental cockroach activity in the following manner:
Test compositions made up of TALSTARONE® MULTI-INSECTICIDE and a wettable powder of imidacloprid (MERIT) in distilled water were prepared that provided appropriate rates of application of combinations of bifenthrin and imidacloprid, as well as bifenthrin and imidacloprid alone.
(§3) The spray chamber was then calibrated to deliver the treatment solution at the desired volume and pressure over the desired area on the chamber shelf. Spray chamber shelf height was adjusted to approximately 18 inches from the spray tip. The shelf was then covered with aluminum foil and the center of the shelf from front-to-back and end-to-end was determined. A desired number of 4.0″ sieve circles were marked on the aluminum foil with a permanent marker. The inside of a desired number of PVC rings were coated with a petroleum jelly/mineral oil mixture (1:2 ratio). The PVC rings were place on the sieve circles. 10 male Oriental cockroaches were placed inside each PVC ring. The sprayer was activated and the test compound was applied to each PVC ring interior. Oriental cockroach knockdown and mortality were measured.

House Fly = test: Example 11: house fly knockdown and mortality, bifenthrin and thiamethoxam
Source text: as §1
The compositions of the present invention were tested for house fly activity in the following manner:
Test compositions made up of TALSTARONE® MULTI-INSECTICIDE and a water dispersible granular of thiamethoxam (CENTRIC) in distilled water were prepared that provided appropriate rates of application of combinations of bifenthrin and thiamethoxam, as well as bifenthrin and thiamethoxam alone.
A DeVilbiss hand held sprayer was used to deliver the treatment solution at the desired volume and pressure. The house flies to be treated were collected and placed in screened 16 oz paper cups. The hand held sprayer was activated and the test compound was applied to each paper cup interior. House fly knockdown and mortality were measured.

German cockroach = test: Example 13: German cockroach mortality, bifenthrin and clothianidin
Source text: as §1
The compositions of the present invention were tested for German cockroach activity in the following manner:
(§4) Test compositions made up of TALSTARONE® MULTI-INSECTICIDE and a 16% a.i. water dispersible granular of clothianidin in distilled water were prepared that provided appropriate rates of application of combinations of bifenthrin and clothianidin, as well as bifenthrin and clothianidin alone.
as §3, with “male German” for “male Oriental”, “interior. German” for “interior. Oriental”, “cockroach” for “cockroach knockdown and”, “mortality was” for “mortality were”

Oriental cockroach [2] = test: Example 15: Oriental cockroach knockdown and mortality, bifenthrin and clothianidin
Source text: as §1, §2, §4, §3

[3] = rate of appln. 10 PPM (0.001% by weight)
[4] = rate of appln. 50 PPM (0.005% by weight)

## Cc1c(COC(=O)[C@@H]2[C@H](/C=C(\Cl)C(F)(F)F)C2(C)C)cccc1-c1ccccc1 (racemic) [A, 2-methylbiphenyl-3-ylmethyl (Z)-(1RS)-cis-3-(2-chloro-3,3,3-trifluoroprop-1-enyl)-2,2-dimethylcyclopropanecarboxylate]
Oriental cockroach [1]; 10 PPM, 0.001% by weight
  Knockdown Rate @ 15 minute: 0%
  Knockdown Rate @ 30 minute: 0%
  Mortality Rate @ 60 minute: 0%
  Mortality Rate @ 120 minute: 0%
  Mortality Rate @ 4 hours: 0%
  Mortality Rate @ 1 day: 15%
  Mortality Rate @ 2 days: 15%
Oriental cockroach [1]; 50 PPM, 0.005% by weight
  Knockdown Rate @ 15 minute: 0%
  Knockdown Rate @ 30 minute: 0%
  Mortality Rate @ 60 minute: 5%
  Mortality Rate @ 120 minute: 5%
  Mortality Rate @ 4 hours: 30%
  Mortality Rate @ 1 day: 70%
  Mortality Rate @ 2 days: 70%
House Fly; A 10 PPM, 0.001% by weight
  Knockdown Rate @ 15 minute: 0%
  Knockdown Rate @ 30 minute: 0%
  Knockdown Rate @ 45 minutes: 6%
  Knockdown Rate @ 60 minutes: 19%
  Knockdown Rate @ 120 minutes: 19%
  Knockdown Rate @ 4 hours: 48%
  Mortality Rate @ 1 day: 3%
House Fly; A 50 PPM, 0.005% by weight
  Knockdown Rate @ 15 minute: 0%
  Knockdown Rate @ 30 minute: 19%
  Knockdown Rate @ 45 minutes: 47%
  Knockdown Rate @ 60 minutes: 59%
  Knockdown Rate @ 120 minutes: 63%
  Knockdown Rate @ 4 hours: 100%
  Mortality Rate @ 1 day: 63%
German cockroach; [3]
  Mortality Rate @ 60 minutes: 8%
  Mortality Rate @ 120 minutes: 33%
  Mortality Rate @ 1 day: 35%
  Mortality Rate @ 2 days: 60%
  Mortality Rate @ 4 days: 100%
German cockroach; [4]
  Mortality Rate @ 60 minutes: 15%
  Mortality Rate @ 120 minutes: 48%
  Mortality Rate @ 1 day: 58%
  Mortality Rate @ 2 days: 100%
  Mortality Rate @ 4 days: 100%
Oriental cockroach [2]; [3]
  Knockdown Rate @ 10 minute: 0%
  Knockdown Rate @ 15 minute: 0%
  Knockdown Rate @ 30 minute: 0%
  Mortality Rate @ 60 minute: 0%
  Mortality Rate @ 120 minute: 0%
  Mortality Rate @ 4 hours: 0%
  Mortality Rate @ 1 day: 0%
  Mortality Rate @ 2 days: 3%
Oriental cockroach [2]; [4]
  Knockdown Rate @ 10 minute: 0%
  Knockdown Rate @ 15 minute: 0%
  Knockdown Rate @ 30 minute: 0%
  Mortality Rate @ 60 minute: 0%
  Mortality Rate @ 120 minute: 0%
  Mortality Rate @ 4 hours: 10%
  Mortality Rate @ 1 day: 20%
  Mortality Rate @ 2 days: 23%

Source: US8092816B2, “Insecticidal compositions for control of general household pests” (priority 2004, dated 2012)
